Laboratory results taken from ChEMBL document CHEMBL1201862, “PubChem BioAssay data set” (2004).
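Tested at 5 concentrations; 48 h exposure; 96-well plates; endpoints linearly interpolated, else capped at highest concentration. GI50 = concentration required for 50% inhibition of growth.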 Active and inactive are the calls of the source. Cut-off read from the data, not from the text of the source: active = GI50 up to about 1.1 µM and inactive = higher.

Key:
Test in all cases: NCI tumour cell line growth inhibition, 48 h
UACC-62 = tested on: UACC-62
MOLT-4 = tested on: MOLT-4
LOX IMVI = tested on: LOX IMVI
A549 = tested on: A549
HOP-92 = tested on: HOP-92
NCI-H460 = tested on: NCI-H460
CAKI-1 = tested on: CAKI-1
RPMI-8226 = tested on: RPMI-8226
HCC 2998 = tested on: HCC 2998
NCI-H522 = tested on: NCI-H522
IGROV-1 = tested on: IGROV-1
NCI-H23 = tested on: NCI-H23
SF-268 = tested on: SF-268
OVCAR-8 = tested on: OVCAR-8
U-251 = tested on: U-251
COLO 205 = tested on: COLO 205

Compound	GI50 (UACC-62)	GI50 (MOLT-4)	GI50 (LOX IMVI)	GI50 (A549)	GI50 (HOP-92)	GI50 (NCI-H460)	GI50 (CAKI-1)	GI50 (RPMI-8226)	GI50 (HCC 2998)	GI50 (NCI-H522)	GI50 (IGROV-1)	GI50 (NCI-H23)	GI50 (SF-268)	GI50 (OVCAR-8)	GI50 (U-251)	GI50 (COLO 205)
CC1(C)C=C(N2CCN(C3=CC(C)(C)NC(C)(C)C3)CC2)CC(C)(C)N1	> 100 µM (inactive)	> 100 µM (inactive)	> 100 µM (inactive)	> 100 µM (inactive)	> 100 µM (inactive)	> 100 µM (inactive)	> 100 µM (inactive)	> 100 µM (inactive)	> 100 µM (inactive)	> 100 µM (inactive)	> 100 µM (inactive)	> 100 µM (inactive)	> 100 µM (inactive)	> 100 µM (inactive)	> 100 µM (inactive)	–
COc1ccc2c(c1)[n+]([O-])c(C(=O)CC(=O)C(=O)Nc1cccc(C)c1C)c(C)[n+]2[O-]	> 100 µM (inactive)	> 100 µM (inactive)	> 100 µM (inactive)	> 100 µM (inactive)	> 100 µM (inactive)	> 100 µM (inactive)	> 100 µM (inactive)	> 100 µM (inactive)	> 100 µM (inactive)	> 100 µM (inactive)	> 100 µM (inactive)	> 100 µM (inactive)	> 100 µM (inactive)	> 100 µM (inactive)	> 100 µM (inactive)	–
CCOC(=O)CCC(=O)C1c2cccc(O)c2C(=O)c2c(O)cc(C)cc21 (stereo unspecified)	0.434 µM (active)	2.1 µM (inactive)	0.729 µM (active)	0.695 µM (active)	1.46 µM (inactive)	0.342 µM (active)	1.79 µM (inactive)	1.01 µM (active)	0.507 µM (active)	0.392 µM (active)	0.289 µM (active)	0.962 µM (active)	0.542 µM (active)	0.764 µM (active)	0.252 µM (active)	2 µM (inactive)
CC(=O)CC(=O)Nc1ccc(OS(N)(=O)=O)cc1	> 100 µM (inactive)	> 100 µM (inactive)	–	> 100 µM (inactive)	> 100 µM (inactive)	> 100 µM (inactive)	> 100 µM (inactive)	> 100 µM (inactive)	> 100 µM (inactive)	> 100 µM (inactive)	> 100 µM (inactive)	> 100 µM (inactive)	> 100 µM (inactive)	> 100 µM (inactive)	> 100 µM (inactive)	> 100 µM (inactive)
CCOC(=O)COc1ccccc1/C=C1\CCC(CN(C)C)C1=O (stereo unspecified)	6.05 µM (inactive)	2.11 µM (inactive)	2.22 µM (inactive)	21.5 µM (inactive)	10.9 µM (inactive)	10.8 µM (inactive)	3.02 µM (inactive)	0.902 µM (active)	2.46 µM (inactive)	2.72 µM (inactive)	13.3 µM (inactive)	8.41 µM (inactive)	5.45 µM (inactive)	4.2 µM (inactive)	8 µM (inactive)	3.9 µM (inactive)
Cc1ccc(N2C(=O)/C(=C3\Sc4c(nc(C)n(C)c4=O)N3c3ccccc3)SC2=S)cc1	45.7 µM (inactive)	> 100 µM (inactive)	> 100 µM (inactive)	49.2 µM (inactive)	33.8 µM (inactive)	19.1 µM (inactive)	41.3 µM (inactive)	> 100 µM (inactive)	> 100 µM (inactive)	> 100 µM (inactive)	48 µM (inactive)	> 100 µM (inactive)	34.6 µM (inactive)	27.9 µM (inactive)	42.7 µM (inactive)	> 100 µM (inactive)
CC1COC(C)(C)P(=O)(c2ccccc2)C1 (stereo unspecified)	> 100 µM (inactive)	> 100 µM (inactive)	> 100 µM (inactive)	> 100 µM (inactive)	–	> 100 µM (inactive)	–	> 100 µM (inactive)	> 100 µM (inactive)	> 100 µM (inactive)	> 100 µM (inactive)	> 100 µM (inactive)	–	> 100 µM (inactive)	> 100 µM (inactive)	> 100 µM (inactive)
C[C@]12CC[C@H](O)CC1=CC[C@@H]1C2CC[C@]2(C)C(=O)NC(=O)CC12 (stereo partly specified)	> 100 µM (inactive)	30.6 µM (inactive)	65.9 µM (inactive)	> 100 µM (inactive)	> 100 µM (inactive)	48.6 µM (inactive)	> 100 µM (inactive)	23 µM (inactive)	> 100 µM (inactive)	63 µM (inactive)	96.8 µM (inactive)	> 100 µM (inactive)	65.9 µM (inactive)	45.6 µM (inactive)	> 100 µM (inactive)	36.8 µM (inactive)
CCOC(=O)/C(=C\c1ccc(OCc2ccccc2)c(OC)c1)C(=O)c1ccccc1	23.3 µM (inactive)	18.3 µM (inactive)	15.9 µM (inactive)	> 10 µM (inactive)	–	–	24.7 µM (inactive)	27.6 µM (inactive)	36.1 µM (inactive)	17.7 µM (inactive)	29.7 µM (inactive)	19.3 µM (inactive)	–	> 10 µM (inactive)	17.3 µM (inactive)	30.8 µM (inactive)
COc1ccc(Cn2c(C)nc3c2C(=O)c2ccccc2C3=O)cc1	4.58 µM (inactive)	2.59 µM (inactive)	2.52 µM (inactive)	8.61 µM (inactive)	–	2.38 µM (inactive)	–	–	18.8 µM (inactive)	6.01 µM (inactive)	9.86 µM (inactive)	7 µM (inactive)	4.49 µM (inactive)	7.01 µM (inactive)	6.32 µM (inactive)	9.02 µM (inactive)
O=C1OC(Cc2ccccc2)(N2CCCC2=O)C1c1ccccc1 (stereo unspecified)	60 µM (inactive)	43.6 µM (inactive)	–	95.7 µM (inactive)	62.8 µM (inactive)	> 100 µM (inactive)	> 100 µM (inactive)	59.4 µM (inactive)	–	48.2 µM (inactive)	–	70.5 µM (inactive)	> 100 µM (inactive)	> 100 µM (inactive)	44.7 µM (inactive)	> 100 µM (inactive)
CC(=O)OCc1c2ccccc2c(C)c2c1cc(F)c1ccccc12	20.7 µM (inactive)	7.74 µM (inactive)	18.5 µM (inactive)	32.4 µM (inactive)	40.6 µM (inactive)	–	31 µM (inactive)	–	25.9 µM (inactive)	12.2 µM (inactive)	22.5 µM (inactive)	23.1 µM (inactive)	29.8 µM (inactive)	18.9 µM (inactive)	23.7 µM (inactive)	16.2 µM (inactive)
CC(=S)NNC(=O)c1ccncc1	> 100 µM (inactive)	> 100 µM (inactive)	> 100 µM (inactive)	> 100 µM (inactive)	> 100 µM (inactive)	> 100 µM (inactive)	> 100 µM (inactive)	–	> 100 µM (inactive)	> 100 µM (inactive)	> 100 µM (inactive)	> 100 µM (inactive)	> 100 µM (inactive)	> 100 µM (inactive)	> 100 µM (inactive)	> 100 µM (inactive)
Nc1ccc(C(=O)NN2C(=O)C(Cl)C2c2ccc(O)cc2)cc1 (stereo unspecified)	14.9 µM (inactive)	16.1 µM (inactive)	9.27 µM (inactive)	56.9 µM (inactive)	24.5 µM (inactive)	19.3 µM (inactive)	25.1 µM (inactive)	49.1 µM (inactive)	–	11.6 µM (inactive)	17.8 µM (inactive)	17.9 µM (inactive)	13.4 µM (inactive)	26.5 µM (inactive)	16.1 µM (inactive)	18.8 µM (inactive)
[O-][Cl+3]([O-])([O-])O.c1ccc(/N=c2\nc(N3CCOCC3)ss2)cc1	13.8 µM (inactive)	12.3 µM (inactive)	16 µM (inactive)	33.4 µM (inactive)	21.9 µM (inactive)	17.6 µM (inactive)	20.2 µM (inactive)	–	21.1 µM (inactive)	12.7 µM (inactive)	20.1 µM (inactive)	29.5 µM (inactive)	16 µM (inactive)	15 µM (inactive)	15.2 µM (inactive)	–
COc1ccc(CCNCc2cccc(OC)c2OC)cc1OC	> 100 µM (inactive)	> 100 µM (inactive)	> 100 µM (inactive)	> 100 µM (inactive)	38.1 µM (inactive)	> 100 µM (inactive)	> 100 µM (inactive)	> 100 µM (inactive)	> 100 µM (inactive)	> 100 µM (inactive)	> 100 µM (inactive)	> 100 µM (inactive)	> 100 µM (inactive)	> 100 µM (inactive)	–	> 100 µM (inactive)
COC(=O)C1=C(c2cc(OC)c(OC)c(OC)c2)OC(c2cc(OC)c(OC)c(OC)c2)C1 (stereo unspecified)	12.8 µM (inactive)	22.9 µM (inactive)	17.9 µM (inactive)	36.5 µM (inactive)	10.7 µM (inactive)	28.4 µM (inactive)	21.8 µM (inactive)	23.1 µM (inactive)	20.1 µM (inactive)	–	20.1 µM (inactive)	19.5 µM (inactive)	46.2 µM (inactive)	32.1 µM (inactive)	20.5 µM (inactive)	16.4 µM (inactive)
CC(=O)C(CN(C(C)C)C(C)C)C(c1ccccc1)c1c(O)c2ccccc2oc1=O (stereo unspecified)	> 100 µM (inactive)	> 100 µM (inactive)	> 100 µM (inactive)	> 100 µM (inactive)	–	> 100 µM (inactive)	> 100 µM (inactive)	> 100 µM (inactive)	–	> 100 µM (inactive)	> 100 µM (inactive)	> 100 µM (inactive)	> 100 µM (inactive)	> 100 µM (inactive)	56.2 µM (inactive)	> 100 µM (inactive)
CC(=O)N1CCN(c2ccc(OCC3COC(Cn4ccnc4)(c4ccc(Cl)cc4Cl)O3)cc2)CC1 (stereo unspecified) [KETOCONAZOLE]	15.4 µM (inactive)	22.5 µM (inactive)	16.9 µM (inactive)	27.3 µM (inactive)	41.7 µM (inactive)	32.5 µM (inactive)	35.5 µM (inactive)	35.9 µM (inactive)	28.4 µM (inactive)	25.6 µM (inactive)	38.7 µM (inactive)	–	–	26.7 µM (inactive)	–	20.1 µM (inactive)
